As usually defined, the IC50 is the point on the concentration scale where inhibition reaches its midpoint. The low end stands for higher potency, the high end for lower potency.

The text below walks through data of PMC9715617 (Frontiers in Pharmacology, 2022).

The target of this experiment is SARS-CoV-2 3CL^pro (Severe acute respiratory syndrome coronavirus 2, UniProt P0DTD1). The experiment can be described thus: SARS-CoV-2 3CLpro enzyme inhibition assay (fluorophore-quencher peptide substrate). Format: biochemical. The following applies: for IC50: 200 nM 3CLpro, 20 min preincubation, 30 min at 25°C, triplicate. Here is the method: Fluorescence intensity was measured on a microplate reader (λex = 485 nm; λem = 528 nm). Experiment was performed in triplicate.

`O=C(N[C@@H](c1cccc(F)c1)C(F)(F)F)[C@@H](c1cnccn1)N(C(=O)c1ccco1)c1ccc(C2CCCCC2)cc1` [Hit 1] returned an IC50 of 17 ± 3 nM. Also, for the setting “ratio of IC50 values vs ML300”, the “inhibition activity, times stronger than that of ML300” value was “about 236 times”.
For the molecule `O=C(NCc1c(F)c(F)c(F)c(F)c1F)[C@@H](c1cccnc1)N(C(=O)c1ccno1)c1ccc(-c2cccs2)cc1` [Hit 2], the IC50 was 830 ± 110 nM.
For the molecule `C[C@H](NC(=O)[C@@H](c1cccnc1)N(C(=O)c1ccno1)c1ccc(C2CCCCC2)cc1)c1cccc(F)c1F` [Hit 3], it took 90 ± 20 nM to reach half-maximal inhibition (IC50).
Regarding `O=C(NCc1ccccc1)[C@@H](c1cccnc1)N(C(=O)c1ccco1)c1ccc(-c2cccs2)cc1` [Hit 4], inhibition was half-maximal at 750 ± 40 nM (IC50).
Molecule `O=C(Nc1ccc(N(Cc2ccsc2)C(=O)Cn2nnc3ccccc32)cc1)C1CC1` [ML300, reference compound] gave an IC50 of 4010 ± 660 nM.
